pIC50: −log10 of the molar value.
Each compound was assayed against EGFR (Homo sapiens (Human), UniProt P00533) (assay: EGFR kinase inhibition, luciferase-coupled chemiluminescent assay (LCCA)). Conditions: read-out: EGFR IC50.
Chain of EGFR (P00533 672-1210): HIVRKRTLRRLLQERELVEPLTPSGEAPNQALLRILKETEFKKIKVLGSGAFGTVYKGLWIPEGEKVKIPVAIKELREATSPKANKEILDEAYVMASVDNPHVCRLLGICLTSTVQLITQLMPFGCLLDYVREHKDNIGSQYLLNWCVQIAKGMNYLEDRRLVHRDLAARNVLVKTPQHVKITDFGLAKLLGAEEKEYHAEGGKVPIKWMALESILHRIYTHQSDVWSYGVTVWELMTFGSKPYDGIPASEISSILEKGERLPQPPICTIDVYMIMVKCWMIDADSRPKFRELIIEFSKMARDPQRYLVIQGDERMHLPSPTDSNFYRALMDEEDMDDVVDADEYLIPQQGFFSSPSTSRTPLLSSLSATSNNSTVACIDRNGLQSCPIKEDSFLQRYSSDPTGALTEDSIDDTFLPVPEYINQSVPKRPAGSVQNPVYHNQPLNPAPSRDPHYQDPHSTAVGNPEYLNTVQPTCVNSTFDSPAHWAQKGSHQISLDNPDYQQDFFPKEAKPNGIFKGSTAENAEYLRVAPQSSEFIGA

Compound | pIC50
COc1cc2c(Nc3ccc(Cl)c(Cl)c3F)ncnc2cc1OC[C@@H]1CN2CCCC[C@@H]2C(=O)N1 [Example 50, (3S,9aR)-3-({[4-[(3,4-dichloro-2-fluorophenyl)amino]-6-(methyloxy)quinazolin-7-yl]oxy}methyl)hexahydro-2H-pyrido[1,2-a]pyrazin-1(6H)-one] | 6.00 to 7.30
C=C1CO[C@@H]2[C@@H](Oc3cc4ncnc(Nc5ccc(Br)c(Cl)c5)c4cc3OC)CO[C@H]12 [Example 81, 1,4:3,6-dianhydro-2-O-[4-[(4-bromo-3-chlorophenyl)amino]-6-(methyloxy)quinazolin-7-yl]-5-deoxy-5-methylidene-D-xylo-hexitol] | > 7.30
COc1cc2c(Nc3ccc(Br)c(Cl)c3)ncnc2cc1O[C@H]1CO[C@@H]2[C@@H](OC)[C@@H](OC)O[C@@H]21 [Example 82, methyl 3,6-anhydro-5-O-[4-[(4-bromo-3-chlorophenyl)amino]-6-(methyloxy)quinazolin-7-yl]-2-O-methyl-beta-L-idofuranoside] | > 7.30
COc1cc2c(Nc3ccc(Cl)c(Cl)c3F)ncnc2cc1OCC1CCC2CCCCN2C1 (stereo not shown) [Example 83, N-(3,4-dichloro-2-fluorophenyl)-6-(methyloxy)-7-[(octahydro-2H-quinolizin-3-ylmethyl)oxy]quinazolin-4-amine] | > 7.30
COc1cc2c(Nc3ccc(F)cc3Cl)ncnc2cc1O[C@@H]1CO[C@@H]2[C@H]1OC[C@H]2F [Example 85, 1,4:3,6-dianhydro-5-O-[4-[(2-chloro4-fluorophenyl)amino]-6-(methyloxy)quinazolin-7-yl]-2-deoxy-2-fluoro-D-iditol] | > 7.30
COc1cc2c(Nc3ccc(F)cc3Br)ncnc2cc1O[C@@H]1CO[C@@H]2[C@H]1OC[C@H]2F [Example 86, 1,4:3,6-dianhydro-5-O-[4-[(2-bromo-4-fluorophenyl)amino]-6-(methyloxy)quinazolin-7-yl]-2-deoxy-2-fluoro-D-iditol] | > 7.30
COc1cc2c(Nc3cccc(Cl)c3F)ncnc2cc1O[C@@H]1CO[C@@H]2[C@H]1OC[C@H]2F [Example 88, 1,4:3,6-dianhydro-5-O-[4-[(3-chloro-2-fluorophenyl)amino]-6-(methyloxy)quinazolin-7-yl]-2-deoxy-2-fluoro-D-iditol] | > 7.30
COc1cc2c(Nc3cc(F)ccc3F)ncnc2cc1O[C@@H]1CO[C@@H]2[C@H]1OC[C@H]2F [Example 91, 1,4:3,6-dianhydro-2-deoxy-5-O-[4-[(2,5-difluorophenyl)amino]-6-(methyloxy)quinazolin-7-yl]-2-fluoro-D-iditol] | > 7.30
COc1cc2c(Nc3cc(Cl)ccc3F)ncnc2cc1O[C@@H]1CO[C@@H]2[C@H]1OC[C@H]2F [Example 93, 1,4:3,6-dianhydro-5-O-[4-[(5-chloro-2-fluorophenyl)amino]-6-(methyloxy)quinazolin-7-yl]-2-deoxy-2-fluoro-D-iditol] | > 7.30
COc1cc2c(Nc3ccc(F)c(Cl)c3)ncnc2cc1O[C@@H]1CO[C@@H]2[C@H]1OC[C@H]2F [Example 95, 1,4:3,6-dianhydro-5-O-[4-[(3-chloro-4-fluorophenyl)amino]-6-(methyloxy)quinazolin-7-yl]-2-deoxy-2-fluoro-D-iditol] | > 7.30
COc1cc2c(Nc3c(F)cc(F)cc3F)ncnc2cc1O[C@@H]1CO[C@@H]2[C@H]1OC[C@H]2F [Example 100, 1,4:3,6-dianhydro-2-deoxy-2-fluoro-5-O-{6-(methyloxy)-4-[(2,4,6-trifluorophenyl)amino]quinazolin-7-yl}-D-iditol] | > 7.30
COc1cc2c(Nc3cc(F)c(Oc4ccc(Cl)cc4)c(F)c3)ncnc2cc1O[C@@H]1CO[C@@H]2[C@H]1OC[C@H]2F [Example 101, 1,4:3,6-dianhydro-5-O-[4-({4-[(4-chlorophenyl)oxy]-3,5-difluorophenyl}amino)-6-(methyloxy)quinazolin-7-yl]-2-deoxy-2-fluoro-D-iditol] | > 7.30
COc1cc2c(Nc3ccc(Br)c(Cl)c3F)ncnc2cc1O[C@@H]1CO[C@@H]2[C@H]1OC[C@H]2F [Example 102, 1,4:3,6-dianhydro-5-O-[4-[(4-bromo-3-chloro-2-fluorophenyl)amino]-6-(methyloxy)quinazolin-7-yl]-2-deoxy-2-fluoro-D-iditol] | > 7.30
COc1cc2c(Nc3cccc(Cl)c3C)ncnc2cc1O[C@@H]1CO[C@@H]2[C@H]1OC[C@H]2F [Example 110, 1,4:3,6-dianhydro-5-O-[4-[(3-chloro-2-methylphenyl)amino]-6-(methyloxy)quinazolin-7-yl]-2-deoxy-2-fluoro-D-iditol] | > 7.30
COc1cc2c(Nc3ccc(F)c(F)c3)ncnc2cc1O[C@@H]1CO[C@@H]2[C@H]1OC[C@H]2F [Example 111, 1,4:3,6-dianhydro-2-deoxy-5-O-[4-[(3,4-difluorophenyl)amino]-6-(methyloxy)quinazolin-7-yl]-2-fluoro-D-iditol] | > 7.30
COc1cc2c(Nc3ccccc3Cl)ncnc2cc1O[C@@H]1CO[C@@H]2[C@H]1OC[C@H]2F [Example 112, 1,4:3,6-dianhydro-5-O-[4-[(2-chlorophenyl)amino]-6-(methyloxy)quinazolin-7-yl]-2-deoxy-2-fluoro-D-iditol] | > 7.30
COc1cc2c(Nc3ccccc3F)ncnc2cc1O[C@@H]1CO[C@@H]2[C@H]1OC[C@H]2F [Example 113, 1,4:3,6-dianhydro-2-deoxy-2-fluoro-5-O-[4-[(2-fluorophenyl)amino]-6-(methyloxy)quinazolin-7-yl]-D-iditol] | > 7.30
COc1cc2c(Nc3ccc(Cl)cc3)ncnc2cc1O[C@@H]1CO[C@@H]2[C@H]1OC[C@H]2F [Example 116, 1,4:3,6-dianhydro-5-O-[4-[(4-chlorophenyl)amino]-6-(methyloxy)quinazolin-7-yl]-2-deoxy-2-fluoro-D-iditol] | > 7.30
COc1cc2c(Nc3ccc(Cl)c(C(F)(F)F)c3)ncnc2cc1O[C@@H]1CO[C@@H]2[C@H]1OC[C@H]2F [Example 121, 1,4:3,6-dianhydro-5-O-[4-{[4-chloro-3-(trifluoromethyl)phenyl]amino}-6-(methyloxy)quinazolin-7-yl]-2-deoxy-2-fluoro-D-iditol] | > 7.30
COc1cc2c(Nc3cccc(C(F)(F)F)c3F)ncnc2cc1O[C@@H]1CO[C@@H]2[C@H]1OC[C@H]2F [Example 123, 1,4:3,6-dianhydro-2-deoxy-2-fluoro-5-O-[4-{[2-fluoro-3-(trifluoromethyl)phenyl]amino}-6-(methyloxy)quinazolin-7-yl]-D-iditol] | > 7.30
COc1cc2c(Nc3cc(C(F)(F)F)ccc3Br)ncnc2cc1O[C@@H]1CO[C@@H]2[C@H]1OC[C@H]2F [Example 124, 1,4:3,6-dianhydro-5-O-[4-{[2-bromo-5-(trifluoromethyl)phenyl]amino}-6-(methyloxy)quinazolin-7-yl]-2-deoxy-2-fluoro-D-iditol] | > 7.30
COc1cc2c(Nc3ccc(F)cc3C(F)(F)F)ncnc2cc1O[C@@H]1CO[C@@H]2[C@H]1OC[C@H]2F [Example 126, 1,4:3,6-dianhydro-2-deoxy-2-fluoro-5-O-[4-{[4-fluoro-2-(trifluoromethyl)phenyl]amino}-6-(methyloxy)quinazolin-7-yl]-D-iditol] | > 7.30
